Values after ≈ are worked out from the molar mass of the structure shown.

This is an account of results in US12303523B2, “Method for treating dupuytren's disease” (Dale Biotech, LLC, priority 2019, dated 2025).

Series [1] can be described thus: physchem. It is filed as physicochemical. The protocol:
Niclosamide ethanolamine salt (niclosamide) was dissolved and titrated (2-fold) in methanol to generate standard curves. The linear range of niclosamide quantification using UV spectrometry (333 nm) was established to be 0.006-0.1 mM. A suspension of niclosamide was prepared in H2O at a concentration of 32.7 mg/ml (100 mM) by vigorous vortexing. A stock solution of rhamnolipids were prepared in H2O at a concentration of 400 mg/ml and diluted appropriately prior to the addition of niclosamide in the presence or absence of 20% glycerol. Niclosamide was added to a final concentration of 10 mM. The solutions were vortexed vigorously, warmed at 37° C. for 5 minutes, vortexed vigorously, and then centrifuged at 17,000 RCF for 5 minutes to remove any large particulates. The supernatant of each sample was assayed for soluble niclosamide by diluting 1:10 to 1:100 in methanol and comparing to a niclosamide standard curve.

The conditions of series [2]: cited from earlier work.
Series [3] deals with STAT3 (Homo sapiens, UniProt P40763). The conditions noted are these: Ren X, et al. ACS Med Chem Lett., 2010; cited from earlier work.
Chain of STAT3 (P40763 whole entry, species assumed): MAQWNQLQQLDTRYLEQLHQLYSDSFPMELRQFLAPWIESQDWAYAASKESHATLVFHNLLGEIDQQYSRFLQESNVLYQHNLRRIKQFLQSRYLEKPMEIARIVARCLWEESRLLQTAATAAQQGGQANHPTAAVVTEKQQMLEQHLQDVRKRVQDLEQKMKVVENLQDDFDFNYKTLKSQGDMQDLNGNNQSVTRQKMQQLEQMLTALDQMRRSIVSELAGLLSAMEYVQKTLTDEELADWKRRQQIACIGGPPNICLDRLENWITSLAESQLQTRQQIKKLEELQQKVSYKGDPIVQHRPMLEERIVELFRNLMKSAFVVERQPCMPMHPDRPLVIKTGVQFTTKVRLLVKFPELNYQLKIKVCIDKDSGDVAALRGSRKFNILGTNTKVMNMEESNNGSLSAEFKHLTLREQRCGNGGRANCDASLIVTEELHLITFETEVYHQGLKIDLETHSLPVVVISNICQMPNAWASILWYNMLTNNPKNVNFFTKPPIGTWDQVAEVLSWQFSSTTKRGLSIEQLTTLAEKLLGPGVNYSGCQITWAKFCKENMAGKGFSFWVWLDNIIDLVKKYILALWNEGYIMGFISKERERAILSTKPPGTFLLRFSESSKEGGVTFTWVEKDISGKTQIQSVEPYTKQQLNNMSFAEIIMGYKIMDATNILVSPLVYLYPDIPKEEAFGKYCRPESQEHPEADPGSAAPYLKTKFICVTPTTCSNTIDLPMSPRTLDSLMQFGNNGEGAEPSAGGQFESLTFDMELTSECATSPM
For series [4], the system named is NF-κB. The conditions noted are these: in vitro experiments; cited from earlier work.

With `O=C(Nc1ccc([N+](=O)[O-])cc1Cl)c1cc(Cl)ccc1O` [Niclosamide ethanolamine, niclosamide ethanolamine], the solubility at 5 min in series [1] (37 °C, water, thermodynamic from solid, Soluble Niclosamide mM, ±SD) came to 1.06 ± 0.053 mM (≈ 347 µg/mL). In addition, the “solubility in distilled water” value in series [2] (distilled water, 20° C.) is 180 to 280 µg/mL.
On to `O=C(Nc1ccc([N+](=O)[O-])cc1Cl)c1cc(Cl)ccc1O` [Niclosamide], for which the increase of solubility result in series [1] (5 min) was “more than 3 fold”. In addition, in series [2] (DMSO), the “solubility in DMSO” value is on record as “up to 10 mM”. The solubility in ethanol in series [2] (ethanol) is 22000 µM (≈ 7200 µg/mL). The “solubility in organic solvents” value in series [2] (ether, ethanol, chloroform, acetone and DMSO) is “sparingly soluble”. In addition, in series [2] (water, 20° C.), the water solubility was 5 to 8 µg/mL. For the same compound, the “inhibition of activation and transcriptional function of STAT3” value in series [3] is on record as “potently inhibits”. For the same compound, in series [4], the “inhibition of NF-κB transcription, DNA binding, TNF-induced IκBα phosphorylation, p65 translocation, downstream gene expression” value is “inhibits”.
